Results reported in paper PMC7576608, “Mechanisms of telomerase inhibition by oxidized and therapeutic dNTPs” (Nature Communications, 2020).
“And” between values parts separate entries of the source, which are not always exact repeats. Equal entries are not always repeated. Where two headings read alike, the source gives them in different places.

Molecular target: telomerase (Homo sapiens, UniProt O14746)
Assay: Telomerase repeat processivity IC50: modified dNTP titrated into reactions with all four natural dNTPs
Type: biochemical
Parameters: made in house; anti-FLAG immunopurification, eluted with 3xFLAG peptide
Details: for YIntercept (line fit of ln(100-%LB) vs # telomere repeats) / ln(100-%LB): n1-n3; for Processivity R 1/2: replicates n1-n3
Description: In order to better understand the ability of modified dNTPs to compete with natural dNTPs for telomerase utilization, we added modified dNTPs to reactions containing all four natural dNTPs. […] The calculated IC50 determines the concentration required to reduce repeat processivity in the bulk reactions by half. However, it is important to note that bulk experiments cannot distinguish effects on individual telomeres, since extended telomeres mask unextended telomeres. Incorporation of a chain terminator during any step will terminate extension of the affected telomere, and just five critically short telomeres are sufficient to trigger senescence. Therefore, repeat processivity IC50 values are not necessarily an indicator of the inhibitory potency, but provide information on selectivity for modified dNTPs compared to natural dNTPs. […] The ability to purify sufficient quantities of tcTERT enables characterization of the catalytic nucleotide addition by pre-steady-state single turnover kinetics using a defined DNA–RNA primer–template substrate. The catalytic efficiency of incorporating a single dNTP is measured by dividing the observed nucleotide incorporation rate constant, kpol, by the equilibrium dissociation constant for dNTP binding to the tcTERT–primer–template complex (Kd)[44].
The reactions were started by the addition of 3 μl of immunopurified telomerase eluent, incubated at 37 °C for 1 h, then terminated with 2 μl of […] and heat inactivated at 65 °C for 20 min. An equal volume of loading buffer (94% formamide, 0.1× TBE, 0.1% bromophenol blue, 0.1% xylene cyanol) was added to the reaction eluent. The samples were heat denatured for 10 min at 100 °C and loaded onto a 14% denaturing acrylamide gel (7 M urea, 1× TBE) and electrophoresed for 90 min at constant 38 W. Samples were imaged using a Typhoon phosphorimager (GE Healthcare). Percent primer extension was calculated with ImageQuant TL 8.2 by measuring the intensity of each product band and dividing by the total radioactivity in the lane or total products, as indicated in the figure legends.
The processivity was calculated as described[40],[67]. Repeat processivity from the direct telomerase extension assays was calculated as R1/2 (equivalent to the half-time for decay in an exponential time course), which represents the median length of DNA product formed, expressed in terms of number of telomere repeats. First, the total volume counts for each product band extend by one or more telomere repeats were obtained using Image Quant TL. The volume counts were then normalized by dividing by the number of radiolabeled guanosines incorporated into the extended products based on the number of repeats added, termed corrected volume (corr vol). The “percent left behind” (%LB) was calculated for each product band by summing the counts for that product band and for every product band below (shorter products), divided by the total counts for the lane, and then multiplied by 100. The natural log of (100−%LB) was calculated and then plotted vs. repeat number for each product length. A linear regression line was fit to the data to determine the slope of the line. The R1/2 value was calculated by dividing −ln(2) by the slope of each fitted line (R1/2 = −ln(2)/slope).
Supplementary Fig 8. IC50 values for telomerase processivity inhibition. Telomerase reactions were conducted with cellular relevant concentrations of all four natural dNTPs and increasing concentrations of the modified dNTP analog from 0 to 10,000 μM to calculate. (a) The natural log of (100-%LB) was plotted vs repeat number. A straight line was fit to the data and the R1/2 value was calculated by dividing –ln(2) by the slope of each line. Plots shown from one experiment are […]

[1] = fit of R 1/2 vs log(concentration), 8-oxo-dATP, replicates N1-N3

Sequence of telomerase (O14746 whole entry): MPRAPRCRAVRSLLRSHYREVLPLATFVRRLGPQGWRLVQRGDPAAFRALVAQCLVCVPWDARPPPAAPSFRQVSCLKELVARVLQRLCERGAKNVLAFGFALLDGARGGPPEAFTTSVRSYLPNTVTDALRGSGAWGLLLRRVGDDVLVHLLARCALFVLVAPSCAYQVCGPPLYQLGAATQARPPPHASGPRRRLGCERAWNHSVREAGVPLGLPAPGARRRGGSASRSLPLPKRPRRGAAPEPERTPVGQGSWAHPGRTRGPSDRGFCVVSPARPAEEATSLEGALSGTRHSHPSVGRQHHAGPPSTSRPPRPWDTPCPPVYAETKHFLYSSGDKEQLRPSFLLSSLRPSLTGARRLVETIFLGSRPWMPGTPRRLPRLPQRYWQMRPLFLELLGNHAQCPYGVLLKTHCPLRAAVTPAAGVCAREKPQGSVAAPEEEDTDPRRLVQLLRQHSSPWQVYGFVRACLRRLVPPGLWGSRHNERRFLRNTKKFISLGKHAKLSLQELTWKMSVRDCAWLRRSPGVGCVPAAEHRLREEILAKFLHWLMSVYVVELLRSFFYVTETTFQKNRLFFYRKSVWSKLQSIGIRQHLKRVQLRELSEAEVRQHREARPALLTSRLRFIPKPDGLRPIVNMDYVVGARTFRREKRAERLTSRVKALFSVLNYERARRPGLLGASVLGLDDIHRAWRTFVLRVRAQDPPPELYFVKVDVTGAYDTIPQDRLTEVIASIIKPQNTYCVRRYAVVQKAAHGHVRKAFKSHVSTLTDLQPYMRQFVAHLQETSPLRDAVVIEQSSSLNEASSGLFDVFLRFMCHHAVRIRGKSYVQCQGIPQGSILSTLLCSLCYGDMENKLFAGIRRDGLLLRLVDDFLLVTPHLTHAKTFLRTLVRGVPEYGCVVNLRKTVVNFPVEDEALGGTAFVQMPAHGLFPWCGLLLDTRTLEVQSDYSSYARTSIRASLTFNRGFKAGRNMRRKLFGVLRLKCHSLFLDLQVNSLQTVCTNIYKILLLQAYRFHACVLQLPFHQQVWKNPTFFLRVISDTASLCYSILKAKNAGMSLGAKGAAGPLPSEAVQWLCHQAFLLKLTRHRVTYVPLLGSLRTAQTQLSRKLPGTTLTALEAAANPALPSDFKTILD

SMILES: Nc1ncnc2c1[nH]c(=O)n2C1CC(O)C(COP(=O)(O)OP(=O)(O)OP(=O)(O)O)O1 (centres unmarked) [8-oxo-dATP]
- YIntercept (line fit of ln(100-%LB) vs # telomere repeats) (8-oxo-dATP 31μM): 3.85 and 3.01 and 3.93
- ln(100-%LB) (8-oxo-dATP 31μM, telomere repeat 3): 2.65 and 1.66 and 2.57
- ln(100-%LB) (8-oxo-dATP 31μM, telomere repeat 4): 2.41 and 1.27 and 2.30
- Processivity R 1/2 (8-oxo-dATP 31.25 μM): 2.10 (2×) and 1.89
- YIntercept (line fit of ln(100-%LB) vs # telomere repeats) (8-oxo-dATP 62μM): 3.73 and 4.08 and 3.84
- ln(100-%LB) (8-oxo-dATP 62μM, telomere repeat 2): 3.20
- ln(100-%LB) (8-oxo-dATP 62μM, telomere repeat 3): 2.53 and 2.54 and 2.74
- ln(100-%LB) (8-oxo-dATP 62μM, telomere repeat 4): 2.27 and 2.24 and 2.50
- ln(100-%LB) (8-oxo-dATP 62μM, telomere repeat 5): 2.02 and 1.94 and 2.24
- ln(100-%LB) (8-oxo-dATP 62μM, telomere repeat 6): 1.71 and 1.56 and 1.91
- ln(100-%LB) (8-oxo-dATP 62μM, telomere repeat 7): 1.38 and 1.06 and 1.53
- ln(100-%LB) (8-oxo-dATP 62μM, telomere repeat 8): 1.13 and 0.68 and 1.26
- Processivity R 1/2 (8-oxo-dATP 62.5 μM): 1.60 (2×) and 2.26
- YIntercept (line fit of ln(100-%LB) vs # telomere repeats) (8-oxo-dATP 250μM): 3.94 and 3.80 and 3.85
- Processivity R 1/2 (8-oxo-dATP 250 μM): 1.82 (2×) and 2.54
- ln(100-%LB) (8-oxo-dATP 250μM, telomere repeat 2): 3.33 and 3.42 and 3.45
- ln(100-%LB) (8-oxo-dATP 250μM, telomere repeat 3): 2.64 and 2.77 and 2.84
- ln(100-%LB) (8-oxo-dATP 250μM, telomere repeat 4): 2.37 and 2.53 and 2.60
- ln(100-%LB) (8-oxo-dATP 250μM, telomere repeat 5): 2.09 and 2.29 and 2.37
- ln(100-%LB) (8-oxo-dATP 250μM, telomere repeat 6): 1.75 and 2.02 and 2.10
- ln(100-%LB) (8-oxo-dATP 250μM, telomere repeat 7): 1.29 and 1.68 and 1.81
- ln(100-%LB) (8-oxo-dATP 250μM, telomere repeat 8): 0.96 and 1.40 and 1.57
- ln(100-%LB) (8-oxo-dATP 250μM, telomere repeat 9): 0.67 and 1.15 and 1.32
- YIntercept (line fit of ln(100-%LB) vs # telomere repeats) (8-oxo-dATP 500μM): 3.61 and 4.18 and 3.88
- Processivity R 1/2 (8-oxo-dATP 500 μM): 1.42 (2×) and 2.03
- ln(100-%LB) (8-oxo-dATP 500μM, telomere repeat 2): 3.10 and 3.59 and 3.36
- ln(100-%LB) (8-oxo-dATP 500μM, telomere repeat 3): 2.50 and 3.01 and 2.60
- ln(100-%LB) (8-oxo-dATP 500μM, telomere repeat 4): 2.24 and 2.80 and 2.29
- ln(100-%LB) (8-oxo-dATP 500μM, telomere repeat 5): 1.94 and 2.56 and 2.01
- ln(100-%LB) (8-oxo-dATP 500μM, telomere repeat 6): 1.62 and 2.28 and 1.70
- ln(100-%LB) (8-oxo-dATP 500μM, telomere repeat 7): 1.26 and 1.91 and 1.22
- ln(100-%LB) (8-oxo-dATP 500μM, telomere repeat 8): 0.97 and 1.63 and 0.93
- YIntercept (line fit of ln(100-%LB) vs # telomere repeats) (8-oxo-dATP 750μM): 4.26 and 4.00 and 3.87
- Processivity R 1/2 (8-oxo-dATP 750 μM): 1.36 (2×) and 2.25
- ln(100-%LB) (8-oxo-dATP 750μM, telomere repeat 2): 3.17 and 3.44 and 3.29
- ln(100-%LB) (8-oxo-dATP 750μM, telomere repeat 3): 2.50 and 2.85 and 2.65
- ln(100-%LB) (8-oxo-dATP 750μM, telomere repeat 4): 2.17 and 2.63 and 2.39
- ln(100-%LB) (8-oxo-dATP 750μM, telomere repeat 5): 1.81 and 2.42 and 2.15
- ln(100-%LB) (8-oxo-dATP 750μM, telomere repeat 6): 1.40 and 2.17 and 1.87
- YIntercept (line fit of ln(100-%LB) vs # telomere repeats) (8-oxo-dATP 1000μM): 4.48 and 4.47 and 4.44
- Processivity R 1/2 (8-oxo-dATP 1000 μM): 0.53 (2×) and 0.83
- YIntercept (line fit of ln(100-%LB) vs # telomere repeats) (8-oxo-dATP 1500μM): 5.00 and 4.48 and 4.84
- Processivity R 1/2 (8-oxo-dATP 1500 μM): 0.00
- Processivity R 1/2 (8-oxo-dATP 2000 μM): 0.00
- IC50 (cellular relevant natural dNTPs, modified dNTP titrated 0 to 10,000 μM, based on repeat processivity, mean ± SD, read-out: Telomerase processivity IC50): 946 ± 49 µM
- LogIC50 (fit of R 1/2 vs log(concentration μM), 8-oxo-dATP, replicates N1-N3): 2.95 and 2.99 (2×)
- Bottom (best-fit value) [1]: -0.12 and 0.69 and -0.000954
- HillSlope [1]: -4.30 and -46.77 and -16.13
- Span (best-fit value) [1]: 1.94 and 1.65 and 2.29
- Top (best-fit value) [1]: 1.81 and 2.33 and 2.29
- IC50 (log of processivity IC50 (concentration in μM), Supplementary Fig 8b, read-out: Log IC50 (converted)): 794 µM
- IC50 (repeat processivity R 1/2, 8-oxo-dATP, mean of N1-N3, read-out: Mean IC50): 946 µM
- IC50 (repeat processivity R 1/2, 8-oxo-dATP, single replicates N1-N3, read-out: IC50): 890 µM and 982 µM and 966 µM
